Values belong to the compound of their own block, whether it stands above or below them.
Tests used:
[1] = Plasmid encapsulation (protection from external medium) by anion exchange chromatography on DEAE Sepharose CL-6B; format: physicochemical; conditions: for cationic lipid concentration required for optimal plasmid encapsulation: detergent dialysis
Procedure: The extent of encapsulation or protection of the plasmid from the external medium was assessed by anion exchange chromatography as follows: a 50 μl aliquot of each sample was eluted on a DEAE Sepharose CL-6B column and the fractions were assessed for both ^3H-plasmid and ^14C-lipid by scintillation counting. Any exposed negative charges, such as those present on DNA molecules will bind-to the anion exchange column and will not elute with the ^14C-lipid. DNA which has its negative charge, “protected” or non-exposed will not bind to the anion exchange resin and will elute with the ^14C-lipid. Alternatively, plasmid DNA was measured using the indicator dye, PicoGreen®.

plasmid DNA [2] = assay: Agarose gel electrophoresis: DNA mobility; format: physicochemical
Procedure: Complexes involving plasmid and poly-L-lysine were formed at a nucleic acid concentration of 10 µg/mL and a 1:1 charge ratio in the presence of 100 mM OGP. Complexes involving the cationic lipid DODAC and plasmid were formed at a plasmid concentration of 10 µg/mL and increasing concentrations of DODAC (10 to 320 nmoles/mL). The mixtures were incubated at room temperature for 30 min prior to loading onto a 0.8% agarose gel. Electrophoresis was carried out in TBE buffer according to standard techniques (Sambrook, et al., Molecular Cloning: A Laboratory Manual, Second Edition, Cold Spring Harbor, N.Y. (1989)). Nucleic acids were visualized after staining the gel with ethidium bromide ([…], 20 min) by photography with UV transillumination.

plasmid DNA [3] = assay: Bligh and Dyer extraction: DNA partitioning between aqueous and organic phase; format: physicochemical; conditions: for amount of lipid for complete partitioning of the DNA into the organic phase: preformed liposomes; for DNA partitioning into the organic phase versus charge ratio: polyvalent lipids compared with monovalent cationic lipids; for DNA partitioning: nonlipid cations, charge ratios up to and in excess of 4
Procedure: […] This mixture of solvents and water is equivalent to that used in the preparation of a Bligh and Dyer monophase (Bligh and Dyer, Can. J. Biochem. Physiol. 37:91-97 (1959)). Typically, DNA was added to achieve a final concentration of […] in solution while lipid was added at various concentrations. Trace quantities of 3H-plasmid DNA were added such that 2000 to 4000 dpm were present per 10 g unlabelled DNA. The reaction mixtures were incubated at room temperature for 30 min in a total volume of 1 mL. Subsequently the Bligh and Dyer monophase was partitioned into a two phase system by the addition of water and chloroform (250 L each). The samples were mixed by vortexing and the separation of the lower organic and upper aqueous phases was facilitated by centrifugation at 2000 rpm for 5 min at room temperature. The aqueous phase was removed and retained for scintillation counting. The solvent phase was dried using a stream of nitrogen gas, and the resulting film was resuspended in SOLVABLE solubilizing agent (Dupont NEN, Boston, Mass., USA) and incubated at 50° C. for 1 hour. […] PICOFLUOR scintillant (Canberra Packard, Meriden, Conn., USA) was added to all samples and the radioactivity (3H-DNA) was measured using a Packard TR 1900 Scintillation Counter (Canberra Packard).
Assays evaluating the stability of charge-neutralized, lipid-nucleic acid complexes were done in the presence of varying concentration of NaCl and OGP. Briefly, cationic lipid-nucleic acid complexes were prepared under conditions where 100% of the plasmid was expected to be recovered in the organic phase. NaCl or OGP was then added to the monophase system and incubations carried out at room temperature for 15 min. Bligh and Dyer extractions were performed as described above. The binding of calcium, L-lysine, and poly-L-lysine to the plasmid was evaluated using a modification of the above procedure. These nonlipid cationic materials were dissolved at various concentrations in sterile distilled water and incubated with the plasmid ([…] final concentration in water) at room temperature for 30 min in a final volume of 250 L. Reaction volumes were adjusted to 1 mL with chloroform:methanol (1:2.1) to produce a monophase. Bligh and Dyer extractions were then performed as described.

plasmid DNA [4] = assay: TO-PRO-1 dye intercalation assay (DNA condensation); format: physicochemical; conditions: Bligh and Dyer monophase; 1 μM TO-PRO-1; 533 nm
Procedure: The fluorochrome TO-PRO-1 was used to evaluate the state of condensation of the plasmid in the charge-neutralized lipid-nucleic acid complex. TO-PRO-1 was used in this study due to its stable intercalation into the plasmid as well as the high sensitivity in the fluorescence detection compared with the more common intercalator ethidium bromide (see, Hirons, et al., Cytometry 15:129-140 (1994)). Plasmid was dissolved in either the Bligh and Dyer monophase or in 100 mM OGP. Poly-L-lysine or DODAC were each added to 10 g plasmid at a 1:1 charge ratio.
Evaluation of the hydrophobic, charge-neutralized lipid-nucleic acid complexes was carried out by assessing the ability of a small fluorescent probe to bind to the nucleic acid in the complex. […] TO-PRO-1 was then added to a final concentration of 1 μM and fluorescence was measured at 533 nm (probe excitation at 509 nm). […] However, when plasmid DNA was added (10 μg/mL) there was a >600 fold increase in fluorescence at 533 nm. […]
The fluorochrome (TO-PRO-1) was used to evaluate the state of condensation of the DNA in the lipid-nucleic acid particle. […] To measure fluorescence, spectrofluorometric measurements were performed using a Luminescence Spectrometer 50B (Perkin Elmer Ltd., Buckinghamshire, England) with an excitation wavelength of 509 nm and an emission wavelength of 533 nm. […]

plasmid DNA [5] = conditions: DNA condensed by addition of polylysine (Reimer et al., 1995); cited from earlier work

Compound: 1-O-(2′-(ω-methoxypolyethyleneglycol)succinoyl)-2-N-myristoyl-sphingosine [PEG-C14]
PEG-C14 concentration giving best entrapment ([1]; 7.5% DODAC and DOPE, dialysis method): 10 mol %

Compound: CCCCCCCCCCCCCCCCCCN(CCCCCCCCCCCCCCCCCC)C(=O)CNC(=O)C(CCCNCCCN)NCCCN (stereo not drawn) [DOGS]
amount of lipid for complete partitioning of the DNA into the organic phase (plasmid DNA [3]; 10 μg DNA): approximately 10 nmoles
DNA partitioning into the organic phase versus charge ratio (plasmid DNA [3]): a slightly greater charge ratio was required

Compound: [Ca+2].[Cl-].[Cl-] [calcium, calcium chloride]
DNA partitioning (plasmid DNA [3]): majority of the DNA was invariably recovered in the aqueous phase

Compound: NCCCC[C@H](N)C(=O)O [lysine, L-lysine]
DNA partitioning (plasmid DNA [3]): majority of the DNA was invariably recovered in the aqueous phase

More lines, main results first:

cationic lipid concentration required for optimal plasmid encapsulation [1]: 8%
Compound: CCCCCCCCCCCCCCOCC(C[N+](C)(C)CCO)OCCCCCCCCCCCCCC.[Br-] (stereo not drawn) [DMRIE, N-(1,2-dimyristyloxyprop-3-yl)-N,N-dimethyl-N-hydroxyethyl ammonium bromide]

DNA mobility in agarose gel (plasmid DNA [2]; addition of 320 nmoles of DODAC): decrease in DNA migrating into the gel
cationic lipid concentration required for optimal plasmid encapsulation [1]: 8%
DNA partitioned into the organic phase (plasmid DNA [3]; 10 μg DNA, 40 nmoles DODAC, OGP up to 20 mM): greater than 99%
Compound: CCCCCCCC/C=C\CCCCCCCC[N+](C)(C)CCCCCCCC/C=C\CCCCCCCC.[Cl-] [DODAC, N,N-dioleyl-N,N-dimethylammonium chloride]

amount of lipid for complete partitioning of the DNA into the organic phase (plasmid DNA [3]; 10 μg DNA): approximately 10 nmoles
stability of complex in presence of NaCl (plasmid DNA [3]; Na+ in a 300-fold molar excess): did not cause partitioning
Compound: CCCCCCCC/C=C\CCCCCCCCOCC(C[N+](C)(C)CCNC(=O)C(CCCNCCCN)NCCCN)OCCCCCCCC/C=C\CCCCCCCC.O=C([O-])C(F)(F)F (stereo not drawn) [DOSPA, N-(-(2,3-dioleyloxy)propyl)-N-(2-(sperminecarboxamido)ethyl)-N,N-dimethylammonium trifluoroacetate]
DNA partitioning into the organic phase versus charge ratio (plasmid DNA [3]): a slightly greater charge ratio was required

cationic lipid concentration required for optimal plasmid encapsulation [1]: 6.5%
Compound: CCCCCCCC/C=C\CCCCCCCCOCC(C[N+](C)(C)C)OCCCCCCCC/C=C\CCCCCCCC.[Cl-] (stereo not drawn) [DOTMA, N-(1-(2,3-dioleyloxy)propyl)-N,N,N-trimethylammonium chloride]

cationic lipid concentration required for optimal plasmid encapsulation [1]: 6.5%
Compound: CCCCCCCCCCCCCCCCCC[N+](C)(C)CCCCCCCCCCCCCCCCCC.[Cl-] [DSDAC]

DNA mobility in agarose gel (plasmid DNA [2]; 1:1 charge ratio, 100 mM OGP): significantly reduced mobility
TO-PRO-1 fluorescence / binding to DNA (plasmid DNA [4]): no fluorescence was observed
Compound: poly L-lysine hydrobromide [poly-L-lysine]
DNA partitioning (plasmid DNA [3]): majority of the DNA was invariably recovered in the aqueous phase
condensation index (plasmid DNA [5]): ≈ 1.0

Reference: patent US6586410B1, “Lipid-nucleic acid particles prepared via a hydrophobic lipid-nucleic acid complex intermediate and use for gene transfer” (Inex Pharmaceuticals Corporation, priority 1995, dated 2003)
